Experimental data taken from ChEMBL document CHEMBL3885881, “DrugMatrix”.

Species on record: Rattus norvegicus
Experiment: DrugMatrix - Regimen: Daily Repeat
Format: toxicity, organism-based, Sprague-Dawley
Set-up: regimen Daily Repeat, gender Male, age 6-8 weeks
Conditions: in vivo, po, route oral GAVAGE, […]; for ABSOLUTE BASOPHIL / ABSOLUTE EOSINOPHIL / ABSOLUTE LYMPHOCYTE / ABSOLUTE MONOCYTE / ABSOLUTE SEGMENTED NEUTROPHIL / BASOPHIL / EOSINOPHIL / ERYTHROCYTE COUNT / HEMATOCRIT / HEMOGLOBIN / LEUKOCYTE COUNT / LYMPHOCYTE / MEAN CORPUSCULAR HEMOGLOBIN / MEAN CORPUSCULAR HEMOGLOBIN CONCENTRATION / MEAN CORPUSCULAR VOLUME / MONOCYTE / NEUTROPHIL / NUCLEATED RED BLOOD CELLS / PLATELET COUNT: tissue Blood; for ALANINE AMINOTRANSFERASE / ALBUMIN / ALKALINE PHOSPHATASE / ASPARTATE AMINOTRANSFERASE / BLOOD UREA NITROGEN / CARBON DIOXIDE / CHLORIDE / CHOLESTEROL / CREATINE PHOSPHOKINASE / CREATININE / GLUCOSE / LACTATE DEHYDROGENASE / LIPASE / PHOSPHORUS / POTASSIUM / SODIUM / TOTAL BILIRUBIN / TOTAL PROTEIN / URIC ACID: tissue Plasma
[1] = 3 mg/kg, 120 h, dose level Low, time 5 day
[2] = 775 mg/kg, 72 h, dose level High, time 3 day
[3] = 775 mg/kg, 120 h, dose level High, time 5 day

CS(=O)(=O)c1ccc(C2=C(c3ccccc3)C(=O)OC2)cc1 [ROFECOXIB]
ABSOLUTE BASOPHIL [1]: 0 CELLS/uL | ABSOLUTE EOSINOPHIL [1]: 0 CELLS/uL | ABSOLUTE LYMPHOCYTE [1]: 7546 CELLS/uL | ABSOLUTE MONOCYTE [1]: 71.67 CELLS/uL | ABSOLUTE SEGMENTED NEUTROPHIL [1]: 782.33 CELLS/uL | BASOPHIL [1]: 0% | EOSINOPHIL [1]: 0% | ERYTHROCYTE COUNT [1]: 5.17 x10E6/uL | HEMATOCRIT [1]: 33.27% | HEMOGLOBIN [1]: 13.07 G/DL | LEUKOCYTE COUNT [1]: 8.4 x10E3/uL | LYMPHOCYTE [1]: 90.67% | MEAN CORPUSCULAR HEMOGLOBIN [1]: 25.27 pg | MEAN CORPUSCULAR HEMOGLOBIN CONCENTRATION [1]: 39.27 G/DL | MEAN CORPUSCULAR VOLUME [1]: 64.33 fL | MONOCYTE [1]: 1% | NEUTROPHIL [1]: 8.33% | NUCLEATED RED BLOOD CELLS [1]: 0 /100WBC | PLATELET COUNT [1]: 1212.67 x10E3/uL | ALANINE AMINOTRANSFERASE [1]: 57.33 u/L | ALBUMIN [1]: 4.17 G/DL | ALKALINE PHOSPHATASE [1]: 300.67 u/L | ASPARTATE AMINOTRANSFERASE [1]: 85.67 u/L | BLOOD UREA NITROGEN [1]: 12.33 mg/dL | CARBON DIOXIDE [1]: 27.67 mmol/L | CHLORIDE [1]: 100.67 MEQ/L | CHOLESTEROL [1]: 62 mg/dL | CREATINE PHOSPHOKINASE [1]: 325.33 u/L | CREATININE [1]: 0.22 mg/dL | GLUCOSE [1]: 165 mg/dL | LACTATE DEHYDROGENASE [1]: 77 u/L | LIPASE [1]: 11.33 u/L | PHOSPHORUS [1]: 9.4 mg/dL | POTASSIUM [1]: 6.14 MEQ/L | SODIUM [1]: 145.9 MEQ/L | TOTAL BILIRUBIN [1]: 0.13 mg/dL | TOTAL PROTEIN [1]: 6.1 G/DL | URIC ACID [1]: 0.73 mg/dL | ABSOLUTE BASOPHIL [2]: 0 CELLS/uL | ABSOLUTE EOSINOPHIL [2]: 0 CELLS/uL | ABSOLUTE LYMPHOCYTE [2]: 11625.33 CELLS/uL | ABSOLUTE MONOCYTE [2]: 298.67 CELLS/uL | ABSOLUTE SEGMENTED NEUTROPHIL [2]: 1009.33 CELLS/uL | BASOPHIL [2]: 0% | EOSINOPHIL [2]: 0% | ERYTHROCYTE COUNT [2]: 5.13 x10E6/uL | HEMATOCRIT [2]: 32.27% | HEMOGLOBIN [2]: 12.53 G/DL | LEUKOCYTE COUNT [2]: 12.93 x10E3/uL | LYMPHOCYTE [2]: 90% | MEAN CORPUSCULAR HEMOGLOBIN [2]: 24.43 pg | MEAN CORPUSCULAR HEMOGLOBIN CONCENTRATION [2]: 38.83 G/DL | MEAN CORPUSCULAR VOLUME [2]: 62.93 fL | MONOCYTE [2]: 2.33% | NEUTROPHIL [2]: 7.67% | NUCLEATED RED BLOOD CELLS [2]: 0.33 /100WBC | PLATELET COUNT [2]: 877.67 x10E3/uL | ALANINE AMINOTRANSFERASE [2]: 55.33 u/L | ALBUMIN [2]: 3.53 G/DL | ALKALINE PHOSPHATASE [2]: 313.67 u/L | ASPARTATE AMINOTRANSFERASE [2]: 81.33 u/L | BLOOD UREA NITROGEN [2]: 14.33 mg/dL | CARBON DIOXIDE [2]: 26.67 mmol/L | CHLORIDE [2]: 99.33 MEQ/L | CHOLESTEROL [2]: 77.67 mg/dL | CREATINE PHOSPHOKINASE [2]: 192.67 u/L | CREATININE [2]: 0.21 mg/dL | GLUCOSE [2]: 185.67 mg/dL | LACTATE DEHYDROGENASE [2]: 91.33 u/L | LIPASE [2]: 22.33 u/L | PHOSPHORUS [2]: 10.4 mg/dL | POTASSIUM [2]: 5.68 MEQ/L | SODIUM [2]: 144.1 MEQ/L | TOTAL BILIRUBIN [2]: 0.1 mg/dL | TOTAL PROTEIN [2]: 5.6 G/DL | URIC ACID [2]: 0.87 mg/dL | ABSOLUTE BASOPHIL [3]: 0 CELLS/uL | ABSOLUTE EOSINOPHIL [3]: 72.67 CELLS/uL | ABSOLUTE LYMPHOCYTE [3]: 8378 CELLS/uL | ABSOLUTE MONOCYTE [3]: 35.33 CELLS/uL | ABSOLUTE SEGMENTED NEUTROPHIL [3]: 1314 CELLS/uL | BASOPHIL [3]: 0% | EOSINOPHIL [3]: 0.67% | ERYTHROCYTE COUNT [3]: 4.79 x10E6/uL | HEMATOCRIT [3]: 30.33% | HEMOGLOBIN [3]: 11.77 G/DL | LEUKOCYTE COUNT [3]: 9.8 x10E3/uL | LYMPHOCYTE [3]: 84% | MEAN CORPUSCULAR HEMOGLOBIN [3]: 24.53 pg | MEAN CORPUSCULAR HEMOGLOBIN CONCENTRATION [3]: 38.8 G/DL | MEAN CORPUSCULAR VOLUME [3]: 63.33 fL | MONOCYTE [3]: 0.67% | NEUTROPHIL [3]: 14.67% | NUCLEATED RED BLOOD CELLS [3]: 0 /100WBC | PLATELET COUNT [3]: 1142 x10E3/uL | ALANINE AMINOTRANSFERASE [3]: 51 u/L | ALBUMIN [3]: 3.33 G/DL | ALKALINE PHOSPHATASE [3]: 298.67 u/L | ASPARTATE AMINOTRANSFERASE [3]: 77.33 u/L | BLOOD UREA NITROGEN [3]: 12.67 mg/dL | CARBON DIOXIDE [3]: 28 mmol/L | CHLORIDE [3]: 99.67 MEQ/L | CHOLESTEROL [3]: 80 mg/dL | CREATINE PHOSPHOKINASE [3]: 192.67 u/L | CREATININE [3]: 0.34 mg/dL | GLUCOSE [3]: 160.67 mg/dL | LACTATE DEHYDROGENASE [3]: 72 u/L | LIPASE [3]: 12.67 u/L | PHOSPHORUS [3]: 9.2 mg/dL | POTASSIUM [3]: 5.83 MEQ/L | SODIUM [3]: 144.83 MEQ/L | TOTAL BILIRUBIN [3]: 0.1 mg/dL | TOTAL PROTEIN [3]: 5.6 G/DL | URIC ACID [3]: 0.7 mg/dL
